Experiments:
[1] = tested on: PGE2; assay: Western blotting of PGE2 in LPS-stimulated RAW264.7 cells; type: cell-based, murine; conditions: LPS 1 µg/mL, 5 to 40 µM, as treatment concentration increased (FIG. 2B)
Protocol: (§1) RAW264.7 cells and A549 cells were dispensed into 6-well plates (1 × 10^6 cells/well) and cultured under conditions of 37°C and 5% CO2. After the culturing, the Raw 264.7 cells were treated with 1 µg/mL of lipopolysaccharide (LPS) and the A549 cells were treated with 5 µg/mL of lipopolysaccharide (LPS) and with 5 µM to 40 µM of gancaonin N, and the cells were cultured for 24 hours or 6 hours. Then, the cells were lysed using a lysis buffer. In addition, the left lung extracted from each mouse was lysed using RIPA buffer. SDS-PAGE electrophoresis was performed on the cell and tissue lysates to separate proteins by side, and 5% bovine serum albumin was used for culturing and for blocking antibodies against PGE2 (1:500), IL-1β (1:500), IL-6 (1:500), TNF-α (1:500), i-NOS (1:500), COX-2 (1:1000), P-ERK1/2 (1:1000), ERK1/2 (1:3000), P-p38 (1:1000), p38 (1:3000), NF-κB p65 (1:1000), Lamin B1 (1:1000), and β-actin (1: 5,000).
To investigate the anti-inflammatory effect of gancaonin N, the inventors treated Raw264.7 cells with LPS and Gancaonin N, as described in Examples 1 to 6, and evaluated the expression level of inflammation-inducing factors. Thus, the inhibitory effect of gancaonin N on inflammation-related factors was specifically confirmed.

[2] = tested on: TNF-α; assay: Real-time PCR of TNF-α mRNA in LPS-stimulated A549 cells; type: cell-based, human; conditions: LPS 5 ug/mL, 5 to 40 µM, 24 hours, effect proportional to amount (FIG. 3A)
Protocol: (§2) A549 cells were dispensed into 6-well plates (1 × 10^6 cells/well) and cultured under conditions of 37°C and 5% CO2. After the culturing, the A549 cells were treated with of 5 ug/mL of lipopolysaccharide (LPS) and with 5 µM to 40 µM of gancaonin N, and the cells were then cultured for 24 hours. Afterwards, total RNA was isolated from each treated cell using Hybrid-RTM (GeneAll, South Korea). The isolated total RNA (500 ng) was converted to cDNA sequentially through incubation at 55°C for 60 minutes using oligo (dT) and incubation at 85°C for 5 minutes, and the cDNA was stored at 4°C until being used. In addition, real-time quantitative PCR was performed using Universal SYBR Green Master Mix (Applied Biosystems, USA), and the cDNA was amplified under conditions described below. 95°C for 15 minutes, then 95°C for 30 seconds, 59°C for 30 seconds, and 72°C for 30 seconds were repeated 40 times. […]
(§3) To investigate the inhibitory effect of gancaonin on the expression levels of pro-inflammatory cytokines, the mRNA expression levels of tumor necrosis factor-α (hereinafter referred to as TNF-α), interleukin-1 beta (hereinafter referred to as IL-1β), and interleukin 6 (hereinafter referred to as IL-6) which are all known as pro-inflammatory cytokines were measured. […]

[3] = tested on: IL-6; assay: Real-time PCR of IL-6 mRNA in LPS-stimulated A549 cells; type: cell-based, human; conditions: LPS 5 ug/mL, 5 to 40 µM, 24 hours, effect proportional to amount (FIG. 3C)
Protocol: as §2, §3

[4] = tested on: COX-2; assay: Western blotting of COX-2 protein in LPS-stimulated A549 cells; type: cell-based, human; conditions: LPS 5 µg/mL, 5 to 40 µM (FIG. 4D)
Protocol: as §1
(§4) For the pro-inflammatory cytokines whose mRNA expression inhibition was confirmed as above, the expression level of the protein encoded by the mRNA was further checked. To determine the protein expression level, A549 cells were treated with LPS and gancaonin N as described in Examples 1 to 8, and the protein expression levels were checked.

[5] = tested on: extracellular signal-regulated kinase (ERK); assay: MAPK/NF-κB signaling pathway: ERK in LPS-stimulated A549 cells; type: cell-based, human
Protocol: as §1
(§5) To identify through which pathway the anti-inflammatory response occurs, the role of gancaonin N in the MAPK/NF-κB signaling pathway was investigated. […]

[6] = tested on: TNF-α; assay: Western blotting of TNF-α in lung of LPS-induced acute lung injury mouse model; type: in vivo, BALB/c mice; conditions: mice, 10 mg/kg or 30 mg/kg intraperitoneally, LPS-induced ALI, Western blotting (FIG. 8)
Protocol: (§6) 25 6-week-old female BALB/c mice having a weight of 18g to 20 g were purchased from BioLink (DBL CO., Eumseong, Chungcheongbuk-do, Korea), and reared in the animal laboratory of KyungHee University. To establish an LPS-induced acute lung injury model, all the mice were divided into five groups each group of which consisted of 5 mice, and the five groups were referred to as control, vehicle (only LPS treatment), gancaonin N (10 mg/kg), gancaonin N (30 mg/kg), and dexamethasone (3 mg/kg). Gancaonin N was intraperitoneally injected at a dose of 10 mg/kg or 30 mg/kg, and dexamethasone was intraperitoneally injected at a dose of 3 mg/kg as a positive control group. In addition, the control and vehicle groups were intraperitoneally injected with 4% DMSO in which gancaonin N was dissolved. Then, 10 µg/50 µL of LPS was intratracheally administered to the mice except for the control group one hour later (the control group mice were administered 50 µL of PBS), and the mice were sacrificed 12 hours later.
(§7) RAW264.7 cells and A549 cells were dispensed into 6-well plates (1 × 10^6 cells/well) and cultured under conditions of 37°C and 5% CO2. […]
(§8) To specifically investigate whether gancaonin N can inhibit pro-inflammatory factors in a mouse model, the protein expression levels of COX-2, IL-1β, and TNF-α were measured by Western blotting as described in Examples 1 to 6 above.

[7] = tested on: IL-1β; assay: Western blotting of IL-1β in lung of LPS-induced acute lung injury mouse model; type: in vivo, BALB/c mice; conditions: mice, 10 mg/kg or 30 mg/kg intraperitoneally, LPS-induced ALI, Western blotting (FIG. 8)
Protocol: as §6, §7, §8

[8] = tested on: p38; assay: MAPK/NF-κB signaling pathway: p38 in LPS-stimulated A549 cells; type: cell-based, human
Protocol: as §1, §5

[9] = tested on: IL-6; assay: Western blotting of IL-6 protein in LPS-stimulated A549 cells; type: cell-based, human; conditions: LPS 5 µg/mL, 5 to 40 µM (FIG. 4C)
Protocol: as §1, §4

[10] = tested on: COX-2; assay: Western blotting of COX-2 in lung of LPS-induced acute lung injury mouse model; type: in vivo, BALB/c mice; conditions: mice, 10 mg/kg or 30 mg/kg intraperitoneally, LPS-induced ALI, Western blotting (FIG. 8)
Protocol: as §6, §7, §8

## COc1ccc(-c2coc3cc(O)c(CC=C(C)C)c(O)c3c2=O)c(O)c1 [gancaonin N, 5,7-dihydroxy-3-(2-hydroxy-4-methoxyphenyl)-6-(3-methylbut-2-enyl)chromen-4-one]
[1]
  expression level of protein of PGE2: significantly decreased
[2]
  mRNA expression of TNF-α: significantly inhibited
[3]
  mRNA expression of IL-6: significantly inhibited
[4]
  protein expression of COX-2: significantly inhibited
[5]; 5µM to 40 µM 2 hours before LPS treatment (FIG. 5A)
  activity/protein expression levels of ERK: significantly reduced
[5]; LPS, tested 5µM to 40 µM
  amount of gancaonin N at which the inhibitory effect on the activity/protein expression levels of ERK was most excellent: 40 µM
[6]
  protein expression level of TNF-α in lung: significantly reduced
[7]
  protein expression level of IL-1β in lung: significantly reduced
[8]; 5µM to 40 µM 2 hours before LPS treatment (FIG. 5B)
  activity/protein expression levels of p38: significantly reduced
[8]; LPS, tested 5µM to 40 µM
  amount of gancaonin N at which the inhibitory effect on the activity/protein expression levels of p38 was most excellent: 20 µM
[9]
  protein expression of IL-6: significantly inhibited
[10]
  protein expression level of COX-2 in lung: significantly reduced
